Data published in patent US7795456B2, “Insecticidal N-substituted sulfoximines” (Dow AgroSciences LLC, priority 2004, dated 2010).
Read-outs that look alike come from different tables or passages of the source.

Columns and labels:
[1] = tested on: corn earworm (Helicoverpa zea)
[2] = tested on: beet armyworm (Spodoptera exigua)
[3] = tested on: fruit fly (Drosophila melanogaster)
[4] = tested on: beet armyworm (Spodoptera exigua); test: Insecticidal test for beet armyworm in injection assays; conditions: 1 h, read-out: BAW SYM: % showing intoxicated symptoms at 10 μg/larva against beet armyworm in injection tests
[5] = tested on: cotton aphid (Aphis gossypii); test: Insecticidal test for cotton aphid, foliar spray on squash; conditions: for pest or weed control at 50 ppm / pest or weed control at 200 ppm: Aphis gossypii, foliar, 72 h; for pest or weed control at 50 ppm: read-out: CA 50: % control at 50 ppm against cotton aphid in foliar spray tests; for pest or weed control at 200 ppm: read-out: CA 200: % control at 200 ppm against cotton aphid in foliar spray tests
[6] = tested on: sweet potato whitefly (Bemisia tabaci); test: Insecticidal test for sweet potato whitefly, foliar spray on cotton; conditions: Bemisia tabaci, in Gossypium hirsutum, foliar, read-out: SPW 200: % control at 200 ppm against sweet potato whitefly in foliar spray tests
[7] = tested on: green peach aphid (Myzus persicae); test: Insecticidal test for green peach aphid, foliar spray on cabbage seedlings
[8] = tested on: yellow fever mosquito (Aedes aegypti) larvae; test: whole plant or invertebrate; type: in vivo; conditions: 72 h, read-out: YFM 26: % control at 26 ppm against yellow fever mosquito in submerge tests
[9] = 50 μg/cm2, second-instar larvae, 5 days

SMILES | CEW 50: % mortality at 50 μg/cm2 against corn earworm in dietary tests [1, 9] | BAW 50: % mortality at 50 μg/cm2 against beet armyworm in dietary tests [2, 9] | FF 25: % mortality at 25 μg/cm2 against fruit fly in dietary tests ([3]; 25 μg/cm2, 48 h) | pest or weed control at 0.01 mg [4] | pest or weed control at 50 ppm [5] | pest or weed control at 200 ppm [5] | pest or weed control at 26 ppm [8] | FF SYM: % showing intoxicated symptoms at 25 μg/cm2 against fruit fly in dietary tests ([3]; 25 μg/cm2, 4 h) | also measured
CS(=O)(CCc1ccc(Cl)nc1)=NC#N (centres unmarked) [Compound 13] | G (Inactive) | G (Inactive) | G (Inactive) | < 50% | 90 to 100% | 90 to 100% |  |  | % Control at ppm, against cotton aphid: 0.195 ([5]; 0.195 ppm, rundown assay): F (Less than 50); % Control at ppm, against cotton aphid: 0.78 ([5]; 0.78 ppm, rundown assay): A (90-100); % Control at ppm, against cotton aphid: 3.12 ([5]; 3.12 ppm, rundown assay): A (90-100); % Control at ppm, against cotton aphid: 12.5 ([5]; 12.5 ppm, rundown assay): A (90-100); % Control at ppm, against cotton aphid: 50 ([5]; 50 ppm, rundown assay): A (90-100); pest or weed control at 200 ppm [6]: 90 to 100%; % Control at ppm, against green peach aphid: 0.78 ([7]; 0.78 ppm, rundown assay, 3 days): F (Less than 50); % Control at ppm, against green peach aphid: 3.12 ([7]; 3.12 ppm, rundown assay, 3 days): C (70-79); % Control at ppm, against green peach aphid: 12.5 ([7]; 12.5 ppm, rundown assay, 3 days): C (70-79); % Control at ppm, against green peach aphid: 50 ([7]; 50 ppm, rundown assay, 3 days): B (80-89)
CCS(=O)(CC(C)c1ccc(Cl)nc1)=N[N+](=O)[O-] (centres unmarked) [Compound 38] | G (Inactive) | G (Inactive) | G (Inactive) |  | 80 to 89% | 90 to 100% | < 50% |  | 
CCS(=O)(=NC#N)C(C)c1ccc(Cl)nc1 (centres unmarked) [Compound 18] | G (Inactive) | G (Inactive) | G (Inactive) | < 50% | 90 to 100% | 90 to 100% |  |  | pest or weed control at 200 ppm [6]: 80 to 89%
CC(C)(c1ccc(Cl)nc1)S(C)(=O)=NC#N (centres unmarked) [Compound 9, [1-(6-chloropyridin-3-yl)-1-methylethyl](methyl)oxido-λ^4-sulfanylidenecyanamide] | G (Inactive) | G (Inactive) | C (70-79) | < 50% | 90 to 100% | 90 to 100% | 90 to 100% | A (90-100) | 
CCC(c1ccc(Cl)nc1)S(C)(=O)=NC#N (centres unmarked) [Compound 26] | G (Inactive) | G (Inactive) | A (90-100) | < 50% | 90 to 100% | 90 to 100% | 90 to 100% | A (90-100) | 
N#CN=S1(=O)CCCC1Cc1ccc(Cl)nc1 (centres unmarked) [Compound 14] | G (Inactive) | G (Inactive) | F (Less than 50) |  | 90 to 100% | 90 to 100% | 90 to 100% |  | 
CS(=O)(=NC#N)C(Cl)c1ccc(Cl)nc1 (centres unmarked) [Compound 23] | G (Inactive) | G (Inactive) | A (90-100) | < 50% | 90 to 100% | 90 to 100% | 90 to 100% | A (90-100) | 
CS(=O)(=NC#N)C(Cc1ccccc1)c1ccc(Cl)nc1 (centres unmarked) [Compound 27] | G (Inactive) | G (Inactive) | G (Inactive) |  | 90 to 100% | 90 to 100% | 80 to 89% |  | 
CS(=O)(=NC#N)C(Br)c1ccc(Cl)nc1 (centres unmarked) [Compound 24] | G (Inactive) | G (Inactive) | A (90-100) | < 50% | 90 to 100% | 90 to 100% | 90 to 100% | F (Less than 50) | 
CS(=O)(=NC#N)C(F)c1ccc(Cl)nc1 (centres unmarked) [Compound 25] | G (Inactive) | G (Inactive) | C (70-79) |  | 90 to 100% | 90 to 100% | 90 to 100% | B (80-89) | 
N#CN=S1(=O)CCCC1Cc1cnc(Cl)s1 (centres unmarked) [Compound 11, 2-[(2-chloro-1,3-thiazol-5-yl)methyl]-1-oxidotetrahydro-1H-1λ^4-thien-1-ylidenecyanamide] | G (Inactive) | G (Inactive) | D (60-69) | 60 to 69% | 90 to 100% | 90 to 100% | 90 to 100% |  | 
N#CN=S1(=O)CCC[C@H]1Cc1ccc(Cl)nc1 (some centres unmarked) [Compound 21] | G (Inactive) | G (Inactive) | G (Inactive) |  | 90 to 100% | 90 to 100% | 80 to 89% |  | 
N#CN=S1(=O)CCCC1 [Compound 12, 1-Oxidotetrahydro-1H-1λ^4-thien-1-ylidenecyanamide] |  |  |  | 90 to 100% | 90 to 100% | 90 to 100% |  |  | CEW 50: % mortality at 50 μg/cm2 against corn earworm in dietary tests ([1]; in vivo): D (key: A: 90-100; B: 80-89; C: 70-79; D: 60-69; E: 50-59; F: Less than 50; G: Inactive; H: Not tested); BAW 50: % mortality at 50 μg/cm2 against beet armyworm in dietary tests ([2]; in vivo): F (key: A: 90-100; B: 80-89; C: 70-79; D: 60-69; E: 50-59; F: Less than 50; G: Inactive; H: Not tested); FF 25: % mortality at 25 μg/cm2 against fruit fly in dietary tests ([3]; in vivo): D (key: A: 90-100; B: 80-89; C: 70-79; D: 60-69; E: 50-59; F: Less than 50; G: Inactive; H: Not tested); FF SYM: % showing intoxicated symptoms at 25 μg/cm2 against fruit fly in dietary tests ([3]; in vivo): A (key: A: 90-100; B: 80-89; C: 70-79; D: 60-69; E: 50-59; F: Less than 50; G: Inactive; H: Not tested); % Control at ppm, against cotton aphid: 0.78 ([5]; in vivo): E (key: A: 90-100; B: 80-89; C: 70-79; D: 60-69; E: 50-59; F: Less than 50; G: Inactive; H: Not tested); % Control at ppm, against cotton aphid: 3.12 ([5]; in vivo): E (key: A: 90-100; B: 80-89; C: 70-79; D: 60-69; E: 50-59; F: Less than 50; G: Inactive; H: Not tested); % Control at ppm, against cotton aphid: 12.5 ([5]; in vivo): A (key: A: 90-100; B: 80-89; C: 70-79; D: 60-69; E: 50-59; F: Less than 50; G: Inactive; H: Not tested); % Control at ppm, against cotton aphid: 50 ([5]; in vivo): A (key: A: 90-100; B: 80-89; C: 70-79; D: 60-69; E: 50-59; F: Less than 50; G: Inactive; H: Not tested); pest or weed control at 200 ppm [6]: 80 to 89%; % Control at ppm, against green peach aphid: 12.5 ([7]; in vivo): F (key: A: 90-100; B: 80-89; C: 70-79; D: 60-69; E: 50-59; F: Less than 50; G: Inactive; H: Not tested); % Control at ppm, against green peach aphid: 50 ([7]; in vivo): F (key: A: 90-100; B: 80-89; C: 70-79; D: 60-69; E: 50-59; F: Less than 50; G: Inactive; H: Not tested)
